# Experimental data taken from publication PMC4490784, “Compensatory induction of MYC expression by sustained CDK9 inhibition via a BRD4-dependent mechanism” (eLife, 2015).
# Legend:
# [1] = target: T1, EPHB2 (Homo sapiens, UniProt P29323); experiment: KINOMEscan binding assay
# T1 construct: purchased DiscoveRx KINOMEscan
# Procedure: (§1) As there are no commercial or in-house kinase assays available for CDK3, CDK5, CDK11 and CDK13, the inhibitory abilities of i-CDK9 toward these CDKs were thus evaluated in the DiscoveRx KINOMEscan assay, which is based on a proprietary active site-directed competition-binding platform ([Fabian et al., 2005]).
# (§2) The inhibitory activity of i-CDK9 for CDK1-CycB (Upstate/Millipore), CDK2-CycA (Invitrogen), CDK4-CycD1 (Novartis), CDK7-CycH-MAT1 (Invitrogen), and CDK9-CycT1 (Invitrogen) was assessed in the AlphaScreen (PerkinElmer, Inc)-based kinase assay developed at Novartis. Briefly, each CDK–cyclin pair was pre-incubated with i-CDK9 for 15 min, followed by addition of kinase substrates (ELK for CDK1 and CDK2, RB for CDK4, and CDK7tide for CDK7 and CDK9). The mixture was incubated at room temperature for additional 4–5 hr. The reaction was stopped and read on Envision (PerkinElmer, Inc). Selectivity against a large panel of over 400 kinases was evaluated using the KINOMEscan platform (DiscoveRx, CA) employing a proprietary active site-directed competition binding assay ([Fabian et al., 2005]). The assay was conducted at two different concentrations of i-CDK9 (1 and 10 µM) by DiscoveRx.
# [2] = target: T2, NEK11 (Homo sapiens, UniProt Q8NG66); experiment: KINOMEscan binding assay; conditions: 1 µM i-CDK9; read-out: % Retention on Solid Support
# T2 construct: purchased DiscoveRx KINOMEscan
# Procedure: as §1, §2
# [3] = target: T3, PAK1 (Homo sapiens, UniProt Q13153); experiment: KINOMEscan binding assay; conditions: read-out: % Retention on Solid Support
# T3 construct: purchased DiscoveRx KINOMEscan
# T3 sequence (Q13153 whole entry): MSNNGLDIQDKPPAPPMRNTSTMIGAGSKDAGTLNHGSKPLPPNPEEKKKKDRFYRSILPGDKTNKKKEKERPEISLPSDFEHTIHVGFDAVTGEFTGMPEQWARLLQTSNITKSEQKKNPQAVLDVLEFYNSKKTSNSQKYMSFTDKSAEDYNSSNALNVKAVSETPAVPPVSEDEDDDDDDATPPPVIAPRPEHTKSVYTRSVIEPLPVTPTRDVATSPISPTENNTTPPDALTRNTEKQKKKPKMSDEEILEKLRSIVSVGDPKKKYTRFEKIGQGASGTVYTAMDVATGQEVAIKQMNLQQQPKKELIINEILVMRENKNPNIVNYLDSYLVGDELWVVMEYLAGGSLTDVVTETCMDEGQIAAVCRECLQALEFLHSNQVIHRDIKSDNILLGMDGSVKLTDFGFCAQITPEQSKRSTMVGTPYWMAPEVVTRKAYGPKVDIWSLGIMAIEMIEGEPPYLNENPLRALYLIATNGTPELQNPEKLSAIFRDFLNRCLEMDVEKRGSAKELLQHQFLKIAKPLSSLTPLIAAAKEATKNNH
# Procedure: as §1, §2
# [4] = target: T4, MKK7 (Homo sapiens, UniProt O14733); experiment: KINOMEscan binding assay; conditions: 1 µM i-CDK9
# T4 construct: purchased DiscoveRx KINOMEscan
# Procedure: as §1, §2
# [5] = target: T5, TAOK1 (Homo sapiens, UniProt Q7L7X3); experiment: KINOMEscan binding assay; conditions: read-out: % Retention on Solid Support
# T5 construct: purchased DiscoveRx KINOMEscan
# T5 sequence (Q7L7X3 whole entry): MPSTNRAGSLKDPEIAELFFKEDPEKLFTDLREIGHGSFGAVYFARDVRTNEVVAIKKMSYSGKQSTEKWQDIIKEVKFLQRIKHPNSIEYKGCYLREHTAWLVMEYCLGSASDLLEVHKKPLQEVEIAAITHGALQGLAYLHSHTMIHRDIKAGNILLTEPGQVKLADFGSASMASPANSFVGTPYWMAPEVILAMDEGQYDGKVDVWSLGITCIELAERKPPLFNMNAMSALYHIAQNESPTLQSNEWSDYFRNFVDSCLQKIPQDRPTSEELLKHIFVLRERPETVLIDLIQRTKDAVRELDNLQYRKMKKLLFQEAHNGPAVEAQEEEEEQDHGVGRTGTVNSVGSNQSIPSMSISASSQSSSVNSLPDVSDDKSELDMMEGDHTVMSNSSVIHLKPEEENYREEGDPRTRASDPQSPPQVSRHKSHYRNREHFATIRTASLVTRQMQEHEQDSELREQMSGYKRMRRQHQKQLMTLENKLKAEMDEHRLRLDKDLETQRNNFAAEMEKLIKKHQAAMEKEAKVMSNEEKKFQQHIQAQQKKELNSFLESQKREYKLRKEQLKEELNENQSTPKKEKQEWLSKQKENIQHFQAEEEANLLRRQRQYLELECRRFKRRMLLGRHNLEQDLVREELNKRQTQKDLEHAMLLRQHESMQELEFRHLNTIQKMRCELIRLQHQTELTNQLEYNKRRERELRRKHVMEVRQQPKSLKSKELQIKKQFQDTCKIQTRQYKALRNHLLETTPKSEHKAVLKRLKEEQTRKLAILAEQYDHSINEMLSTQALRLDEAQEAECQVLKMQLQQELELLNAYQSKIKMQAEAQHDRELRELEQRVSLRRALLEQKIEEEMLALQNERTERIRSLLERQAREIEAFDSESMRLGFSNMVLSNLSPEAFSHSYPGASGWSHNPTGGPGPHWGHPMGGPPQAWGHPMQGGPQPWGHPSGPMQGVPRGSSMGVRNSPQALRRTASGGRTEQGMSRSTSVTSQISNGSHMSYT
# Procedure: as §1, §2
# [6] = target: T6, NEK4 (Homo sapiens, UniProt P51957); experiment: KINOMEscan binding assay; conditions: 1 µM i-CDK9; read-out: % Retention on Solid Support
# T6 construct: purchased DiscoveRx KINOMEscan
# Procedure: as §1, §2
# [7] = target: T7, AAK1 (Homo sapiens, UniProt Q2M2I8); experiment: KINOMEscan binding assay; conditions: read-out: % Retention on Solid Support
# T7 construct: purchased DiscoveRx KINOMEscan
# Procedure: as §1, §2
# [8] = target: T8, CAMK1G (Homo sapiens, UniProt Q96NX5); experiment: KINOMEscan binding assay; conditions: read-out: % Retention on Solid Support
# T8 construct: purchased DiscoveRx KINOMEscan
# T8 sequence (Q96NX5 whole entry): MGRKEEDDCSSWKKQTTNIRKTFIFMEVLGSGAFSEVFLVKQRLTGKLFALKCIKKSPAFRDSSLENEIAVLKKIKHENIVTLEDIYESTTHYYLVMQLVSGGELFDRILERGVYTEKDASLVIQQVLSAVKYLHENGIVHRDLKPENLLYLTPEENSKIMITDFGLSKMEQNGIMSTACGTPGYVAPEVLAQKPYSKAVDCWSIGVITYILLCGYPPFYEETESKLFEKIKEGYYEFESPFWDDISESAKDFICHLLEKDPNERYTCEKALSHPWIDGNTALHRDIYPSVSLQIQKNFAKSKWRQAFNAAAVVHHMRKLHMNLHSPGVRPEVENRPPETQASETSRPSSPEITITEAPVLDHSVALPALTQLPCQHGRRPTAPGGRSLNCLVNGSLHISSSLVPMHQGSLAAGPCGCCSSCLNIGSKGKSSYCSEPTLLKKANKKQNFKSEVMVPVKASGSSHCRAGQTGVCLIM
# Procedure: as §1, §2
# [9] = target: T9, PIK3CA(E542K) (Homo sapiens, UniProt P42336, E542K); experiment: KINOMEscan binding assay; conditions: read-out: % Retention on Solid Support
# T9 construct: purchased DiscoveRx KINOMEscan
# T9 sequence (P42336 whole entry E542K): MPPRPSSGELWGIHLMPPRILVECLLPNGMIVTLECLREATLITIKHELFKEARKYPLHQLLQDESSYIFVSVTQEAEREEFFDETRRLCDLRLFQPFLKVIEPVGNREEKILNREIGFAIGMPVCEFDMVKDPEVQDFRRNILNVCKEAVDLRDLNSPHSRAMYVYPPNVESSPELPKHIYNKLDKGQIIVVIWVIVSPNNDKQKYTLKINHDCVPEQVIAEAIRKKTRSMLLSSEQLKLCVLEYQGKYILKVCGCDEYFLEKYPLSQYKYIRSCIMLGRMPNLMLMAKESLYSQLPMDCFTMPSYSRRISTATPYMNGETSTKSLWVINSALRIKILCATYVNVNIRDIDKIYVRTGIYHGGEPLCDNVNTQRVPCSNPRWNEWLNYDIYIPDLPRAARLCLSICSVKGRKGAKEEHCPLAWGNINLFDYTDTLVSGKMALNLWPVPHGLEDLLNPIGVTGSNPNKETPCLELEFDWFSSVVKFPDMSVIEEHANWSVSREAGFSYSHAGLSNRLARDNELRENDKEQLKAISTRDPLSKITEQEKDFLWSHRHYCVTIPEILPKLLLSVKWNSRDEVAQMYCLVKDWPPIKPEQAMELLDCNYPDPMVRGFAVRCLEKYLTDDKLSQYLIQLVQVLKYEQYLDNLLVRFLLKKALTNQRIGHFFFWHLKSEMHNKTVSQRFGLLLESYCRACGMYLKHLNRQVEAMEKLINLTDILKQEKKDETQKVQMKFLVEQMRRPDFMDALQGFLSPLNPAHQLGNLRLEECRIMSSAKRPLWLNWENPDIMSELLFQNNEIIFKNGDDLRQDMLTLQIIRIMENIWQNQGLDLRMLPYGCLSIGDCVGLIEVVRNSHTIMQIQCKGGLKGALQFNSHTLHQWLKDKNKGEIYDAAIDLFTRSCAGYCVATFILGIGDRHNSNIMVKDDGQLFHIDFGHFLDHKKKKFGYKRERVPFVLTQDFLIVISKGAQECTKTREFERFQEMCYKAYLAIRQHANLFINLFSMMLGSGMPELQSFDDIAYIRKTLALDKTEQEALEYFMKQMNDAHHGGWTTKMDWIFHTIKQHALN
# Procedure: as §1, §2
# [10] = target: T10, PRKD2 (Homo sapiens, UniProt Q9BZL6); experiment: KINOMEscan binding assay; conditions: read-out: % Retention on Solid Support
# T10 construct: purchased DiscoveRx KINOMEscan
# T10 sequence (Q9BZL6 whole entry): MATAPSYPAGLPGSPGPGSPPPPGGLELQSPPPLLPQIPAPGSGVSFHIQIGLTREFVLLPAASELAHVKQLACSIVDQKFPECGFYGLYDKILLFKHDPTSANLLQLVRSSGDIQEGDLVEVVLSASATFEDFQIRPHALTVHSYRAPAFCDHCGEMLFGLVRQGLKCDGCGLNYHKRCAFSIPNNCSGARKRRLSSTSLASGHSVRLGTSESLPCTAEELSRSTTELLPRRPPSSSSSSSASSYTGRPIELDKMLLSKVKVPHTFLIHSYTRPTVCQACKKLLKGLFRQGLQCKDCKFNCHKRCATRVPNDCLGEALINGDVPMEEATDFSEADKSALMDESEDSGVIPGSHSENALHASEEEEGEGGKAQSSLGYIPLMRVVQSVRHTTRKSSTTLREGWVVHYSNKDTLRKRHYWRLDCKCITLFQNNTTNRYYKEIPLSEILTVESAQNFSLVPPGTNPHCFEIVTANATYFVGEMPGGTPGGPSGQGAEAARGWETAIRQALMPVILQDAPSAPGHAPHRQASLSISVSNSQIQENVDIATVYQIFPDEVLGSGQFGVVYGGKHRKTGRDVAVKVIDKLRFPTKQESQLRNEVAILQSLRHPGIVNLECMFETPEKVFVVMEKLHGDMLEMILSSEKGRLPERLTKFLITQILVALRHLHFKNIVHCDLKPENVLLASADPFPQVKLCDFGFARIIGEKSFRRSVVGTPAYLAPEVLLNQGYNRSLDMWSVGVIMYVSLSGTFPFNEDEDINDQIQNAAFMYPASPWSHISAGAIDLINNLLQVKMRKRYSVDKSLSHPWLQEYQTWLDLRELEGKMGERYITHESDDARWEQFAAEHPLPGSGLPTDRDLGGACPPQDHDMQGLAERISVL
# Procedure: as §1, §2
# [11] = tested on: Ser2-phosphorylated Pol II in HeLa cells; experiment: Immunoblotting of global pSer2 (Pol II CTD) in HeLa cell lysates; assay type: cell-based, human; conditions: 8 hr
# Procedure: Inhibition of phosphorylation of both Pol II CTD and SPT5 is expected to block transcriptional elongation, which will effectively decrease the production of labile proteins from short-lived transcripts.
# Figure 3. Induction of MYC mRNA production in response to sustained inhibition of CDK9 by i-CDK9 and the requirement of MYC's natural genomic structure in this process. (A) The indicated tumor cell lines were treated with i-CDK9 (0.5 μM) for 2–16 hr and the MYC mRNA levels, which were divided by those in the DMSO-treated cells and averaged from three independent replicates of DNA microarray analysis, were shown as log2 values. (B) HeLa cells were treated with the indicated concentrations of i-CDK9 for 8 hr and the various proteins in the total cell lysates were detected by immunoblotting as indicated. Quantifications of the levels of MYC protein and Ser2-phosphoryalted Pol II (pSer2) in the lysates were shown above and below the immunoblots, respectively. […] The levels of the indicated proteins were examined by immunoblotting. (G) A HeLa-based cell line containing the stably transfected, doxycycline (Dox)-inducible MYC-F-expressing plasmid driven by the CMV promoter was pretreated with (+) or without (−) Dox prior to incubation with i-CDK9 or DMSO. MYC and MYC-F expressed from the endogenous MYC locus and the transfected plasmid, respectively, were detected by immunoblotting. DOI: http://dx.doi.org/10.7554/eLife.06535.007 Figure 3—figure supplement 1. Biphasic response of MYC mRNA production throughout the course of CDK9 inhibition by i-CDK9. DOI: http://dx.doi.org/10.7554/eLife.06535.008 [drawing 2] Figure 3—Figure supplement 2. […] DOI: http://dx.doi.org/10.7554/eLife.06535.009 [drawing 3] TEXT PRINTED IN THE PICTURE: (B) i-CDK9: Fold increase in MYC protein: 1.0 (i-CDK9 (μM): 0); Fold increase in MYC protein: 1.2 (i-CDK9 (μM): 0.01); Fold increase in MYC protein: 1.7 (i-CDK9 (μM): 0.03); Fold increase in MYC protein: 3.6 (i-CDK9 (μM): 0.1); Fold increase in MYC protein: 5.2 (i-CDK9 (μM): 0.3); Fold increase in MYC protein: 5.5 (i-CDK9 (μM): 1.0) | (C) i-CDK9: Fold increase in MYC protein: 1.0 (0.3 μM i-CDK9 (h): 0); Fold increase in MYC protein: 0.9 (0.3 μM i-CDK9 (h): 1); Fold increase in MYC protein: 1.1 (0.3 μM i-CDK9 (h): 2); Fold increase in MYC protein: 1.2 (0.3 μM i-CDK9 (h): 4); Fold increase in MYC protein: 3.3 (0.3 μM i-CDK9 (h): 8)
# First, the induction of MYC protein level was confirmed in HeLa cells treated with i-CDK9. […] It took 1.0 µM i-CDK9 to cause up to 85% reduction in pSer2. In a separate time-course analysis, the 8-hr incubation with i-CDK9 (0.3 μM) induced the MYC level by 3.3-fold, whereas the same condition reduced the pSer2 level by only 40% (Figure 3C). […]
# [12] = target: CDK9-CycT1 (Homo sapiens, UniProt P50750); experiment: In vitro kinase reaction with baculovirus-produced recombinant kinase (SignalChem); assay type: biochemical; set-up: purchased SignalChem; host or cells: baculovirus-produced; conditions: 80 nM i-CDK9
# T1 sequence (P29323 19-1055): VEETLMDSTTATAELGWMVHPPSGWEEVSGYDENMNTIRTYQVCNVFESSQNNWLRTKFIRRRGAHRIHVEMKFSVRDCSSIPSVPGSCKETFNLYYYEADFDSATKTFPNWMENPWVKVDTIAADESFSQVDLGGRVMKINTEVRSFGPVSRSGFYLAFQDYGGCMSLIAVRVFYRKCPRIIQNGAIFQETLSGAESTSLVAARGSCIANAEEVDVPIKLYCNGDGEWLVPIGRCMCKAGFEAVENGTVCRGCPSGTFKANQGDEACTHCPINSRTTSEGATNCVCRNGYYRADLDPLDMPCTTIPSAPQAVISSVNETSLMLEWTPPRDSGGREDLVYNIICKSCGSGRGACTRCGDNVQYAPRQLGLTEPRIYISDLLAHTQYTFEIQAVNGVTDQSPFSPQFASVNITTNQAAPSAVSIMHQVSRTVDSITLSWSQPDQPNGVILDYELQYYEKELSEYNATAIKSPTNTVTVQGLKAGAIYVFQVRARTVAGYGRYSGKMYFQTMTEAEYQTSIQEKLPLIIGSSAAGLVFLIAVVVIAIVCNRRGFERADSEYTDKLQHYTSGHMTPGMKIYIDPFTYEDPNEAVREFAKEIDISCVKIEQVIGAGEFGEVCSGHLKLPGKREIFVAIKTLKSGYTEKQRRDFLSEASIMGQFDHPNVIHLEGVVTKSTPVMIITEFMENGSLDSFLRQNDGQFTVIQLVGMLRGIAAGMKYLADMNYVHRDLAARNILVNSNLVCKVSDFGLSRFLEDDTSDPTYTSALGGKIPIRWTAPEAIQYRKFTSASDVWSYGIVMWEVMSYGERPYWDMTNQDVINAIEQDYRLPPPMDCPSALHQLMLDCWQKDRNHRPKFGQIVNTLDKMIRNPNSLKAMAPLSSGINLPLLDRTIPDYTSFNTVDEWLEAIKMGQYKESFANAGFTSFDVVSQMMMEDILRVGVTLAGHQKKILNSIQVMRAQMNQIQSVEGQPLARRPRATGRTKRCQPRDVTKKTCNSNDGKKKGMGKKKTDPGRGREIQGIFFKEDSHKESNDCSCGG
smiles,measurement,setting,value
"N[C@H]1CC[C@H](Nc2cc(-c3cccc(NCc4cccc(F)c4)n3)c(Cl)cn2)CC1 [i-CDK9, N2′-(trans-4-aminocyclohexyl)-5′-chloro-N6-(3-fluorobenzyl)-2,4′-bipyridine-2′,6-diamine]",% Retention on Solid Support,[1]; 1 µM i-CDK9,100%
same,% Retention on Solid Support,[1]; 10 µM i-CDK9,66%
same,remaining binding at 1 µM,[2],100%
same,remaining binding at 1 µM,[3]; 1 µM i-CDK9,100%
same,remaining binding at 10 µM,[3]; 10 µM i-CDK9,100%
same,% Retention on Solid Support,[4],100%
same,remaining binding at 1 µM,[5]; 1 µM i-CDK9,51%
same,remaining binding at 10 µM,[5]; 10 µM i-CDK9,4%
same,remaining binding at 1 µM,[6],100%
same,remaining binding at 1 µM,[7]; 1 µM i-CDK9,100%
same,remaining binding at 10 µM,[7]; 10 µM i-CDK9,100%
same,remaining binding at 1 µM,[8]; 1 µM i-CDK9,92%
same,remaining binding at 10 µM,[8]; 10 µM i-CDK9,100%
same,remaining binding at 1 µM,[9]; 1 µM i-CDK9,100%
same,remaining binding at 10 µM,[9]; 10 µM i-CDK9,100%
same,remaining binding at 1 µM,[10]; 1 µM i-CDK9,88%
same,remaining binding at 10 µM,[10]; 10 µM i-CDK9,47%
same,decrease of global pSer2 level,[11]; 0.1 μM,23%
same,reduction in global pSer2,"[11]; 0.3 μM, Figure 4-figure supplement 1",about 50%
same,reduction in pSer2,[11]; 1.0 μM,up to 85%
same,pSer2 in the Pol II CTD and pThr775 in SPT5,[11]; dose-dependent,markedly reduced
same,inhibition of Ser2 phosphorylation,[12],mostly inhibited
